Measured values taken from patent US20160031907A1, “Substituted Benzene Compounds” (EPIZYME, INC., priority 2013, published 2016).

System: WSU-DLCL2 cell line
Experiment: Cell proliferation analysis (Cell Titer Glo, 6 days)
Format: cell-based
Settings: Homo sapiens, WSUDLCL2, 144 h; WSU-DLCL2 cells, 6 days incubation, cell viability by ATP (Cell Titer Glo)
Source text: Cell Proliferation Analysis
WSU-DLCL2 suspension cells were purchased from DSMZ (German Collection of Microorganisms and Cell Cultures, Braunschweig, Germany). RPMI/Glutamax Medium, Penicillin-Streptomycin, Heat Inactivated Fetal Bovine Serum were purchased from Life Technologies, Grand Island, N.Y., USA. V-bottom polypropylene 384-well plates were purchased from Greiner Bio-One, Monroe, N.C., USA. Cell culture 384-well white opaque plates were purchased from Perkin Elmer, Waltham, Mass., USA. Cell-Titer Glo® was purchased from Promega Corporation, Madison, Wis., USA. SpectraMax M5 plate reader was purchased from Molecular Devices LLC, Sunnyvale, Calif., USA.
WSU-DLCL2 suspension cells were maintained in growth medium (RPMI 1640 supplemented with 10% v/v heat inactivated fetal bovine serum and cultured at 37° C. under 5% CO2. Under assay conditions, cells were incubated in Assay Medium (RPMI 1640 supplemented with 20% v/v heat inactivated fetal bovine serum and 100 units/mL penicillin-streptomycin) at 37° C. under 5% CO2.
For the assessment of the effect of compounds on the proliferation of the WSU-DLCL2 cell line, exponentially growing cells were plated in 384-well white opaque plates at a density of 1250 cell/ml in a final volume of 50 μl of assay medium. A compound source plate was prepared by performing triplicate nine-point 3-fold serial dilutions in DMSO, beginning at 10 mM (final top concentration of compound in the assay was 20 μM and the DMSO was 0.2%). A 100 nL aliquot from the compound stock plate was added to its respective well in the cell plate. The 100% inhibition control consisted of cells treated with 200 nM final concentration of staurosporine and the 0% inhibition control consisted of DMSO treated cells. After addition of compounds, assay plates were incubated for 6 days at 37° C., 5% CO2, relative humidity >90% for 6 days. Cell viability was measured by quantization of ATP present in the cell cultures, adding 35 μl of Cell Titer Glo® reagent to the cell plates. Luminescence was read in the SpectraMax M5. The concentration inhibiting cell viability by 50% was determined using a 4-parametric fit of the normalized dose response curves.

`CCN(c1cc(Cl)cc(C(=O)NCCc2ncc[nH]2)c1C)[C@H]1CC[C@H](N(C)C)CC1` [Cpd 10] was tested, and the IC50 was greater than 50 µM.
In the case of `CCN(c1cc(Cl)cc(C(=O)NCc2ccn(C)n2)c1C)C1CCOCC1` [Cpd 28], the IC50 is reported as greater than 50 µM.
For `CCN(c1cc(Cl)cc(C(=O)NCc2cncn2C)c1C)C1CCOCC1` [Cpd 22], the IC50 was greater than 50 µM.
`CCN(c1cc(Cl)cc(C(=O)NCc2cn3ccsc3n2)c1C)C1CCOCC1` [Cpd 26] showed an IC50 greater than 50 µM.
`CCN(c1cc(Cl)cc(C(=O)NCc2cc(C)on2)c1C)C1CCOCC1` [Cpd 29] was tested, and the IC50 was greater than 50 µM.
In the case of `CCN(c1cc(Cl)cc(C(=O)NCc2cn(C)cn2)c1C)C1CCOCC1` [Cpd 25], the IC50 is reported as greater than 50 µM.
Work on `CCN(c1cc(Cl)cc(C(=O)NCc2cnn(C)c2C)c1C)C1CCOCC1` [Cpd 27] yielded an IC50 greater than 50 µM.
`CCN(c1cc(Cl)cc(C(=O)NCc2cccn3ccnc23)c1C)[C@H]1CC[C@H](N(C)C)CC1` [Cpd 3] showed an IC50 greater than 25 µM.
`CCN(c1cc(Cl)cc(C(=O)NCc2nccs2)c1C)C1CCOCC1` [Cpd 24] showed an IC50 greater than 50 µM.
In the case of `CCN(c1cc(Cl)cc(C(=O)NCc2c[nH]cn2)c1C)C1CCOCC1` [Cpd 30], the IC50 is reported as 44.1 µM.
In the case of `CCN(c1cc(Cl)cc(C(=O)NCc2cc(C)nn2C)c1C)C1CCOCC1` [Cpd 31], the IC50 is reported as greater than 50 µM.
In the case of `CCN(c1cc(Cl)cc(C(=O)NCc2nccn2C)c1C)C1CCOCC1` [Cpd 23], the IC50 is reported as greater than 50 µM.
In the case of `CCN(c1cc(Cl)cc(C(=O)NCc2c(C)cc(C)n3ccnc23)c1C)[C@H]1CC[C@H](N(C)C)CC1` [Cpd 1], the IC50 is reported as greater than 25 µM.
`CCN(c1cc(Cl)cc(C(=O)NCc2c(C)ccn3ccnc23)c1C)[C@H]1CC[C@H](N(C)C)CC1` [Cpd 2] showed an IC50 greater than 25 µM.
